We go through 59 molecules from the METLIN SMRT retention time set (Domingo-Almenara et al. 2019).

A short description of the data set: gradient 5% acetonitrile 3 min, to 50% in 2 min, to 85% in 15 min, held 3 min, 100 µL/min. The note with it: column: Zorbax Extend-C18 2.1 x 50 mm; eluents: water / acetonitrile, 0.1% formic acid. The method in brief: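 Pure standards were run in mixtures of ~100 molecules by HPLC coupled to a quadrupole time-of-flight mass spectrometer. The column was a Zorbax Extend-C18 (2.1 × 50 mm, 1.8 μm) at 100 μL/min, with water and acetonitrile each containing 0.1% formic acid, in positive and negative ionization mode. Dead and dwell volumes were 40 μL and 900 μL. Retention time was taken from computationally picked adduct peaks, each manually inspected, with data collected over 3 months.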
The molecule `O=C(CN1c2ccc(F)cc2-c2ccccc2S1(=O)=O)Nc1ccccc1` registered an RP-LC retention time of 936 s. `O=C(NCCN1CCOCC1)c1cccc(Nc2c(-c3ccccc3)nc3cnccn23)c1` came in with an RP-LC retention time of 589 s. `O=S(=O)(NCc1ccc2[nH]c3c(c2c1)CCCC3)c1ccccc1`: the RP-LC retention time was determined as 600 s.

On to `CCC(C)NC(=O)c1ccc(Cn2nc(C)c(S(=O)(=O)N(C)C)c2C)cc1` (centres undefined), for which the RP-LC retention time was determined as 754 s. `Cc1ccc(NC(=O)C2(C)Oc3cccnc3NC2=O)cc1C` (centres undefined) showed an RP-LC retention time of 760 s. The value for `CCn1cnc2cc(CNC(=O)c3cc(C)cc(C)c3)ccc21` was 646 s.

The molecule `O=C(Cc1noc2ccccc12)NCC1CCS(=O)(=O)C1` (centres undefined) had an RP-LC retention time of 606 s.

With `CCc1nc(-c2ccc(OC3CCN(C(=O)c4sc(C)nc4C)C3)cc2)no1` (centres undefined), the RP-LC retention time came out at 696 s. `COc1ccccc1CNC(=O)Cn1c(=O)c2cc(C3CC3)nn2c2ncccc21` showed an RP-LC retention time of 760 s.

In turn, `Cc1cc2[nH]c(C(=O)Nc3cc(F)c(F)c(F)c3)c(CN3CCOCC3)c2s1` had an RP-LC retention time of 737 s. As for `O=C(c1ccc(Cl)s1)N1CCC(Oc2nc3c(F)cc(F)cc3s2)CC1`, the figure is 1140 s; as for `Cc1ccc(NC(=O)Nc2ccc3nc(N4CCN(C)CC4)cc(C)c3c2)cc1C`, 614 s. The value for `Cc1noc(C)c1CN1CCN(C(=O)Cn2c(=O)oc3ccccc32)CC1` was 550 s. The value for `CSc1cccc(NC(=O)N2CCC(n3c(C)nc4cccnc43)CC2)c1` was 647 s; that for `CCc1ccc(CNC(=O)C2CCN(C(=O)c3ncn4c3COC(c3ccccc3)C4)CC2)cc1` (centres undefined) was 756 s; that for `CCc1nc2cccnc2n1C1CCN(C(=O)CCCc2ccccc2)C1` (centres undefined) was 647 s. The molecule `COCCN1CCCc2ccc(NC(=O)c3ccc(Br)o3)cc21` had an RP-LC retention time of 913 s.

Take `O=c1c2nc(-c3ccc(F)cc3F)cn2ccn1-c1ccc2c(c1)CCC2`: the RP-LC retention time turned out to be 1030 s. Take `O=C(NCCn1c(=O)n(Cc2ccccc2)c2cccnc21)c1cccnc1`: the RP-LC retention time amounted to 650 s. `CCc1nc2nccc(-c3cccc(OC)c3)n2n1` returned an RP-LC retention time of 762 s. In the case of `COC(=O)c1cccc(NC(=O)c2[nH]c3cc(C)sc3c2CN2CCOCC2)c1`, the RP-LC retention time amounted to 673 s. As for `CCc1ccc(NC(=O)c2cn(-c3cc(-c4nc(CC)no4)ccn3)cn2)cc1`, the figure is 939 s; as for `CC1(C(=O)NC2CCCC2)CN(S(C)(=O)=O)CC(=O)N1Cc1ccc(Cl)cc1` (centres undefined), 834 s. The value for `Cc1ccc(CN2C(=O)COC[C@H]2C(=O)Nc2ccc3c(c2)OCCO3)cc1` was 780 s. The value for `Cc1cc(C(=O)Nc2nnc(-c3ccn(C)n3)o2)c(C)o1` was 617 s. As to `C=CCNC(=O)C1CCN(C(=O)Nc2ccc(NC(=O)Nc3ccccc3F)cc2)CC1`, the RP-LC retention time was found to be 710 s. In turn, `COC(=O)C1=CN(C2CC2)c2cc(N3CCN(C)CC3)c(F)cc2S1(=O)=O` returned an RP-LC retention time of 955 s.

Turning to `CCN(CC)CCCNC(=O)CN1C(=O)CCn2nc(-c3cn(C)c4ccccc34)cc21`, the RP-LC retention time worked out at 613 s. Molecule `CC(C)C(=O)NCCc1csc(C2CCCN(C(=O)C(C)(C)C)C2)n1` (centres undefined) displayed an RP-LC retention time of 734 s.

For `O=C(NC1CCc2ccccc21)C1CCN(c2ncccc2-c2nc(-c3cccc(F)c3)no2)CC1` (centres undefined), the RP-LC retention time is 1160 s.

Regarding `COc1cccc(N2CCN(c3ccnc(SCC(=O)Nc4ccc(F)cc4)n3)CC2)c1`, the RP-LC retention time was determined as 768 s. The value for `O=C(NCc1cccs1)c1nc2ccccn2c1-c1ccccc1` was 853 s; that for `CS(=O)(=O)N1CCC(C(=O)NCCC2=CCCCC2)Oc2ccc(Cl)cc21` (centres undefined) was 1020 s. As for `COc1ccc(C2(c3nc(-c4ccc(CNC(=O)C5CC5)s4)no3)CC2)cc1`, the figure is 955 s; as for `CCN1CCCn2cc(S(=O)(=O)Nc3cc(F)cc(F)c3)cc2C1=O`, 768 s; as for `COc1ccc(CNC(=O)c2cc3c(=O)n(C)c4ccccc4n3n2)c(OC)c1`, 784 s. As for `CC1(C)CC(=O)c2cn(-c3ccc(F)cc3)c(=O)c(C(=O)N3CCCC3)c2C1`, the figure is 729 s; as for `COc1ccc2[nH]cc(CN3CC[C@H](c4n[nH]c(C)n4)[C@H](N(C)C)C3)c2c1`, 547 s. As for `CC1(C)CC(=O)c2cn(-c3ccccc3)c(=O)c(C(=O)NC3CC3)c2C1`, the RP-LC retention time is 963 s.

For `C[C@@H](NC(=O)c1ccc(Cl)cc1)C(=O)NCc1cscn1`, the RP-LC retention time stood at 673 s. As for `Cc1ccsc1-c1nnc(CC(=O)N2CCN(C3CCCCC3)CC2)o1`, the figure is 616 s; as for `CCN1C(=O)c2cc(S(=O)(=O)Nc3cc(F)ccc3F)ccc2Oc2cccnc21`, 980 s. As for `CC1CCN(C(=O)c2cn(-c3cc(N4CCOCC4)ncn3)cn2)CC1`, the figure is 729 s.

As to `COc1cc2c(cc1O)CCC1C2CC[C@@]2(C)C1CC[C@@H]2O` (some centres undefined), the RP-LC retention time worked out at 836 s. Take `Cc1sc(-c2nc(C(C)C)cs2)cc1S(=O)(=O)N1CCCCC1`: the RP-LC retention time was 1310 s. As for `COc1cccc(COC(=O)C2=CN(C)S(=O)(=O)N=C2C)c1`, the figure is 921 s. As for `CNC(=O)C1CCCN(c2nc3ncn(CC(=O)N4CCc5ccccc5C4)c(=O)c3s2)C1` (centres undefined), the figure is 666 s; as for `COc1ccc(N2C(=O)N[C@@H]3C[C@]2(C)Oc2ccc(C)cc23)c(OC)c1`, 870 s.

With `COc1ccc(OC)c(NC(=O)CN2CCN(Cc3ccccc3)C(=O)C2=O)c1`, the RP-LC retention time amounted to 732 s.

`Cc1ccc(CNC(=O)c2ccc3ncnc(N4CCCC4)c3c2)cc1` gave an RP-LC retention time of 656 s. As for `COc1ccc(Cc2nc(-c3cccc(-c4ccnn4C)c3)no2)cc1OC`, the figure is 904 s; as for `O=C(CN1C(=O)c2ccccc2C1=O)Nc1nnc(C2COc3ccccc3O2)o1` (centres undefined), 714 s; as for `Cc1ccc(CN2CCCN(c3ncccc3-c3nc(C(C)C)no3)CC2)cc1`, 746 s. As for `Cc1ccc(C)c(NC(=O)NCC(c2cccnc2)c2cn(C)c3ccccc23)c1` (centres undefined), the figure is 733 s; as for `Cc1cc(NC(=O)N2C[C@@H](F)C[C@H]2C(=O)N2CCCCC2)ccc1Br`, 824 s. The value for `COC1CN(c2cccc(F)c2)C12CCN(Cc1ccccn1)CC2` (centres undefined) was 699 s; that for `Cc1ccc(-n2c(N3CCCC(C(=O)NC(C)c4ccc(F)cc4)C3)nc3ccsc3c2=O)cc1` (centres undefined) was 959 s.

In turn, `CCN1CCN(CCCNC(=O)c2nc(-c3oc4ccccc4c3C)no2)CC1` showed an RP-LC retention time of 621 s. As for `CC(C)N1C(=O)c2cccnc2Sc2cc(NC(=O)C(C)(C)C)ccc21`, the figure is 828 s.
